Test results as given in patent US20240238232A1, “COMPOSITIONS AND METHODS FOR THE REDUCTION OR TREATMENT OF INSULIN RESISTANCE AND METABOLIC CONDITIONS” (AXCELLA HEALTH INC., priority 2018, published 2024).

Tested on: Human CCL2 (MCP-1)
Test: MCP1/CCL2 secretion in primary human hepatocytes (FFA + TNFα, ELISA after 24 h)
Format: cell-based
Conditions: for MCP1 expression relative to Control, Mean: baseline subtracted; for MCP1/CCL2 secretion: primary human hepatocytes from two healthy donors, FFA + TNFα, 24 h
Method: Hepatocyte lipotoxicity appears to be a central driver of hepatic cellular injury via oxidative stress and endoplasmic reticulum (ER) stress. The ability of amino acids to influence steatosis (lipid accumulation) and inflammation in hepatocytes was assessed using human primary hepatocytes (Lonza, TRL).
Primary hepatocytes lot nos. from two healthy human donors were seeded on day 0 at density of 6e04 cells in 96 well optical microplates (Thermofisher) in hepatocyte plating media (William's E medium (Gibco) supplemented with 10% heat-inactivated FBS (Atlanta Bio), 2 mM Glutamax (Gibco), and 0.2% Primocin (InVivoGen) and incubated for 6 hours at 37° C., 5% CO2. After 6 hours, cells were washed twice and incubated overnight at 37° C., 5% CO2 with Hepatocytes defined medium (Corning) supplemented with 2 mM Glutamax (Gibco), and 1×Penicillin/Streptomycin. On day 1, cells were washed twice and incubated for 24 h in the hepatocyte culture media in the same conditions described above.
On day 2, cells were washed twice with DPBS 1 X (Gibco) and maintained in amino acid-free WEM (US Biologicals) containing a defined custom amino acid concentration based on the mean physiological concentrations in blood. The values are published in the Human Metabolome Database (Wishart D S, Tzur D, Knox C, et al., HMDB: the Human Metabolome Database. Nucleic Acids Res. 2007 January; 35 (Database issue): D521-6. 17202168; which is hereby incorporated by reference in its entirety). This custom media is supplemented with 11 mM Glucose, 0.272 mM Sodium Pyruvate, and a dose curve of defined amino acid compositions (i.e., vehicle, LIVRQ+N-acetylcysteine, LIVRQ, RQ+N-acetylcysteine, N-acetylcysteine alone, LIV, or individually with L-Leucine, L-Isoleucine, L-Valine, L-Arginine, L-Glutamine, and L-Cysteine) at various ranges of concentrations. Cells were maintained in this defined media for 24 hours at 37° C., 5% CO2.
Co-treatment with free fatty acids and different amino acids combination After pre-treatment, cells were exposed to free fatty acids (FFA) at 250 uM with a ratio of 2:1 (Oleate: Palmitate) supplemented with TNF-α (Thermofisher) at 1 ng/ml or vehicle. Cells were incubated with the FFAs mixture and the different amino acids combinations for 24 hours at 37° C., 5% CO2. After 24 hours incubation, media was removed for cytokine analysis and replaced by fresh media containing the same stimulus conditions and amino acid concentrations. Cells were incubated for an additional 48 hours for a total of 72 hours of FFA and TNFα stimulation.
Human CCL2 (MCP-1) was measured by ELISA (Human […] DuoSet ELISA, R&D Systems) at ⅕ or 1/10 dilution in 1 X Reagent Diluent (Reagent Ancillary Kit 2, R&D Systems). Data were normalized to the specific per well cell density determined by nuclei count stained by Hoechst 3342 (Life technologies) in the fluorescence microscopy described below.
MCP1 CCL2 Secretion Tables 56-59 show the baseline subtracted secretion of MCP1/CCL2 in primary human hepatocytes cells from two healthy donors (donor 1 for Tables 56 and 57, and donor 2 for Tables 58 and 59).

**Q.** How did the “MCP1 expression relative to Control, Mean” value (Donor 1, Conc. 66 μM) turn out when `CC[C@H](C)[C@H](N)C(=O)O` [Isoleucine, L-Isoleucine] was run?
**A.** −1.2E−15

**Q.** And the “MCP1 expression relative to Control, Mean” value (Donor 1, Conc. 1328 μM)?
**A.** −0.3073

**Q.** What about the “MCP1 expression relative to Control, Mean” value (Donor 1, Conc. 3320 μM) of the same compound?
**A.** −2.417

**Q.** And the “MCP1 expression relative to Control, Mean” value (Donor 1, Conc. 6639 μM)?
**A.** −0.205

**Q.** What about the “MCP1 expression relative to Control, Mean” value (Donor 2, Conc. 66 μM) of the same compound?
**A.** 0

**Q.** What about the “MCP1 expression relative to Control, Mean” value (Donor 2, Conc. 1328 μM) of the same compound?
**A.** 26.62

**Q.** What about the “MCP1 expression relative to Control, Mean” value (Donor 2, Conc. 3320 μM) of the same compound?
**A.** −5.645

**Q.** And the “MCP1 expression relative to Control, Mean” value (Donor 2, Conc. 6639 μM)?
**A.** 18.62

**Q.** What about the MCP1/CCL2 secretion of the same compound?
**A.** did not have an effect

**Q.** With `CC(C)C[C@H](N)C(=O)O` [Leucine, L-Leucine] as the compound, how does the “MCP1 expression relative to Control, Mean” value (Donor 1, Conc. 153 μM) read?
**A.** 5.92E−16

**Q.** What about the “MCP1 expression relative to Control, Mean” value (Donor 1, Conc. 3054 μM) of the same compound?
**A.** 3.34

**Q.** What about the “MCP1 expression relative to Control, Mean” value (Donor 1, Conc. 7635 μM) of the same compound?
**A.** 1.896

**Q.** What about the “MCP1 expression relative to Control, Mean” value (Donor 1, Conc. 15270 μM) of the same compound?
**A.** −1.368

**Q.** What about the “MCP1 expression relative to Control, Mean” value (Donor 2, Conc. 153 μM) of the same compound?
**A.** −4.7E−15

**Q.** What about the “MCP1 expression relative to Control, Mean” value (Donor 2, Conc. 3054 μM) of the same compound?
**A.** 16.11

**Q.** And the “MCP1 expression relative to Control, Mean” value (Donor 2, Conc. 7635 μM)?
**A.** −2.988

**Q.** What about the “MCP1 expression relative to Control, Mean” value (Donor 2, Conc. 15270 μM) of the same compound?
**A.** −26.6436

**Q.** And the MCP1/CCL2 secretion?
**A.** did not have an effect

**Q.** For `CC(=O)N[C@@H](CS)C(=O)O` [N-acetyl cysteine, N-acetylcysteine], which “MCP1 expression relative to Control, Mean” value (Donor 1, Conc. 1000 μM) is on record?
**A.** −0.7629

**Q.** What about the “MCP1 expression relative to Control, Mean” value (Donor 1, Conc. 2500 μM) of the same compound?
**A.** −2.498

**Q.** What about the “MCP1 expression relative to Control, Mean” value (Donor 1, Conc. 5000 μM) of the same compound?
**A.** −10.8919

**Q.** And the “MCP1 expression relative to Control, Mean” value (Donor 1, Conc. 10000 μM)?
**A.** −17.6065

**Q.** And the “MCP1 expression relative to Control, Mean” value (Donor 1, Conc. (X) 5)?
**A.** −0.7629

**Q.** And the “MCP1 expression relative to Control, Mean” value (Donor 1, Conc. (X) 10)?
**A.** −2.498

**Q.** What about the “MCP1 expression relative to Control, Mean” value (Donor 1, Conc. (X) 20) of the same compound?
**A.** −10.8919

**Q.** And the “MCP1 expression relative to Control, Mean” value (Donor 1, Conc. (X) 40)?
**A.** −17.6065

**Q.** And the “MCP1 expression relative to Control, Mean” value (Donor 2, Conc. 1000 μM)?
**A.** 1.602

**Q.** And the “MCP1 expression relative to Control, Mean” value (Donor 2, Conc. 2500 μM)?
**A.** −4.0591

**Q.** And the “MCP1 expression relative to Control, Mean” value (Donor 2, Conc. 5000 μM)?
**A.** −10.5725

**Q.** And the “MCP1 expression relative to Control, Mean” value (Donor 2, Conc. 10000 μM)?
**A.** −28.4419

**Q.** What about the “MCP1 expression relative to Control, Mean” value (Donor 2, Conc. (X) 1000) of the same compound?
**A.** 1.602

**Q.** What about the “MCP1 expression relative to Control, Mean” value (Donor 2, Conc. (X) 2500) of the same compound?
**A.** −4.0591

**Q.** What about the “MCP1 expression relative to Control, Mean” value (Donor 2, Conc. (X) 5000) of the same compound?
**A.** −10.5725

**Q.** And the “MCP1 expression relative to Control, Mean” value (Donor 2, Conc. (X) 10000)?
**A.** −28.4419

**Q.** What about the MCP1/CCL2 secretion of the same compound?
**A.** significantly decrease

**Q.** How did the “MCP1 expression relative to Control, Mean” value (Donor 1, Conc. 234 μM) turn out when `CC(C)[C@H](N)C(=O)O` [Valine, L-Valine] was run?
**A.** −2.4E−15

**Q.** What about the “MCP1 expression relative to Control, Mean” value (Donor 1, Conc. 4684 μM) of the same compound?
**A.** 23.6867

**Q.** And the “MCP1 expression relative to Control, Mean” value (Donor 1, Conc. 11710 μM)?
**A.** 77.73

**Q.** And the “MCP1 expression relative to Control, Mean” value (Donor 1, Conc. 23420 μM)?
**A.** 14.17

**Q.** What about the “MCP1 expression relative to Control, Mean” value (Donor 2, Conc. 234 μM) of the same compound?
**A.** −1.4E−14

**Q.** And the “MCP1 expression relative to Control, Mean” value (Donor 2, Conc. 4684 μM)?
**A.** 10.79

**Q.** And the “MCP1 expression relative to Control, Mean” value (Donor 2, Conc. 11710 μM)?
**A.** 38.25

**Q.** And the “MCP1 expression relative to Control, Mean” value (Donor 2, Conc. 23420 μM)?
**A.** −30.7921

**Q.** What about the MCP1/CCL2 secretion of the same compound?
**A.** did not have an effect

**Q.** How did the “MCP1 expression relative to Control, Mean” value (Donor 1, Conc. 109 μM) turn out when `N=C(N)NCCC[C@H](N)C(=O)O` [arginine, L-Arginine] was run?
**A.** 2.37E−15

**Q.** What about the “MCP1 expression relative to Control, Mean” value (Donor 1, Conc. 1088 μM) of the same compound?
**A.** 5.114

**Q.** What about the “MCP1 expression relative to Control, Mean” value (Donor 1, Conc. 2720 μM) of the same compound?
**A.** 6.527

**Q.** And the “MCP1 expression relative to Control, Mean” value (Donor 1, Conc. 5440 μM)?
**A.** 10.9386

**Q.** What about the “MCP1 expression relative to Control, Mean” value (Donor 2, Conc. 109 μM) of the same compound?
**A.** −4.7E−15

**Q.** And the “MCP1 expression relative to Control, Mean” value (Donor 2, Conc. 1088 μM)?
**A.** 24.95

**Q.** And the “MCP1 expression relative to Control, Mean” value (Donor 2, Conc. 2720 μM)?
**A.** 24.06

**Q.** And the “MCP1 expression relative to Control, Mean” value (Donor 2, Conc. 5440 μM)?
**A.** 8.494

**Q.** What about the MCP1/CCL2 secretion of the same compound?
**A.** increased

**Q.** What does the source list for `NC(=O)CC[C@H](N)C(=O)O` [glutamine, L-Glutamine]?
**A.** MCP1 expression relative to Control, Mean (Donor 1, Conc. 749 μM): 0; MCP1 expression relative to Control, Mean (Donor 1, Conc. 3747 μM): −0.8981; MCP1 expression relative to Control, Mean (Donor 1, Conc. 11242 μM): −9.001; MCP1 expression relative to Control, Mean (Donor 1, Conc. 22484 μM): −21.8392; MCP1 expression relative to Control, Mean (Donor 2, Conc. 749 μM): 2.84E−14; MCP1 expression relative to Control, Mean (Donor 2, Conc. 3747 μM): −45.0574; MCP1 expression relative to Control, Mean (Donor 2, Conc. 11242 μM): −90.6558; MCP1 expression relative to Control, Mean (Donor 2, Conc. 22484 μM): −138.873; MCP1/CCL2 secretion: significantly decrease
